Results on two molecules are retold here after PMC8459971, “Evaluation of the hepatotoxicity of the novel GPR40 (FFAR1) agonist CPL207280 in the rat and monkey” (PLoS ONE, 2021).

Several values for one entry are separate records, joined by “and”; a condition that tells them apart may be missing. Identical values can stand only once.

Series [1] in a line: Metabolite profiling, rat hepatocytes. The settings on record: 10 μM CPL207280, 120 min, ND = not detected. The format is in vitro ADME. How it is done: (§1) Suspensions of cryopreserved human, rat, and monkey hepatocytes were pooled from a minimum of three individuals. All cryopreserved hepatocytes were purchased from a commercial supplier. […] The cell density was 0.5 ×10^6 viable cells/mL. The final DMSO concentration during the incubation was 0.25%. Control incubations were performed in lysed cells to reveal any non-enzymatic degradation. Two control compounds were identified in each species. Samples (50 μL) were removed from the incubation mixture at 0, 10, 20, 40, 60, and 120 min and added to methanol containing an internal standard (100 μL) to stop the reaction. The samples were centrifuged (4000 x g at 4°C for 30 min) and the supernatants at each time point were pooled for analysis by LC MS/MS using Cyprotex generic methods. Following hepatocyte stability assays, the samples were utilized for metabolite profiling. […] Metabolites were characterized using a mass spectrometer comprising Waters Xevo QT of G2-S, Acquity Binary Solvent Manager, Acquity Column Manager, and 2777 Autosampler.

Series [2] in a line: Metabolite profiling, human hepatocytes. The format is in vitro ADME. Particulars: human hepatocytes, 10 μM CPL207280, 60 min; ND = not detected. How it is done:
as §1

Another series addresses T1, MRP4 (Homo sapiens, UniProt O15439).
T1 sequence (O15439 1-1325): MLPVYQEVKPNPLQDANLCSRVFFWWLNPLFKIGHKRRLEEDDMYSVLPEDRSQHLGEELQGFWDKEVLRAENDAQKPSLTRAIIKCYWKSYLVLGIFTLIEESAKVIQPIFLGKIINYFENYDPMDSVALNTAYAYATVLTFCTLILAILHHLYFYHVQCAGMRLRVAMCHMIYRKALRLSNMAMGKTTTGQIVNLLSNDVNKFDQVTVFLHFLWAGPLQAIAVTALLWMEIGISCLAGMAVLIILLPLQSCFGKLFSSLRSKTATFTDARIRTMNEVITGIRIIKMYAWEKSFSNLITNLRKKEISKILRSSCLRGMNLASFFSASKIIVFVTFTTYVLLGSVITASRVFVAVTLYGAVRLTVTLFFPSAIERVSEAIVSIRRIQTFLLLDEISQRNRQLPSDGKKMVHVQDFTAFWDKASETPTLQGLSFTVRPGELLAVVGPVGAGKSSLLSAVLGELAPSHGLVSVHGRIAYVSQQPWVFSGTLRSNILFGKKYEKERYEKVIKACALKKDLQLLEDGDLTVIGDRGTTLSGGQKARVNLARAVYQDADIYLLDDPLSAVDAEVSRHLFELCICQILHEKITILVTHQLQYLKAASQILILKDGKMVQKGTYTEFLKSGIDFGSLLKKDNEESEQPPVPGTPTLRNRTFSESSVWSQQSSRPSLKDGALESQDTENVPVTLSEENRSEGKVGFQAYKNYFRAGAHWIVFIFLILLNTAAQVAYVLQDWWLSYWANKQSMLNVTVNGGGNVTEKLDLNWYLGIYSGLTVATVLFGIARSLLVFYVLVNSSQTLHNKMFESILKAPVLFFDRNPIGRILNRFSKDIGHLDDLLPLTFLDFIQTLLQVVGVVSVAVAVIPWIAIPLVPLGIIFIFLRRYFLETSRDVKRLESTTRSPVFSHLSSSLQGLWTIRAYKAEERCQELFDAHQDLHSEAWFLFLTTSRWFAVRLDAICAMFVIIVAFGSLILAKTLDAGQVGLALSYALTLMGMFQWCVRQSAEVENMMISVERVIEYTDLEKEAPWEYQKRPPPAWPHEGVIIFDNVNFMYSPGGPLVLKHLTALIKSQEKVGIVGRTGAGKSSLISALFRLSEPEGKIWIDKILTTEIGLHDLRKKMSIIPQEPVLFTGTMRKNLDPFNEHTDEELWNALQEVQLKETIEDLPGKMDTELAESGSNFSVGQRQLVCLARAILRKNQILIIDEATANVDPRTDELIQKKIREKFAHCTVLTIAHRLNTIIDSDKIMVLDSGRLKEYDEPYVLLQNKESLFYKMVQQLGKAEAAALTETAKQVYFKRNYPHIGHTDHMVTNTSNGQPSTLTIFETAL
The series is described as follows: Vesicular transport inhibition assay, MRP4.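 Further: membrane vesicles with MRP4 incubated with compound and probe substrate plus 4 mM ATP, or AMP as passive-diffusion background, vesicular substrate uptake read by liquid scintillation counting; ATP 4 mM vs AMP background separates transporter uptake from diffusion.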 Particulars: MRP4; reference inhibitor 150 µM.

A further series deals with MRP3 (Homo sapiens, UniProt O15438). The series can be described thus: Vesicular transport inhibition assay, MRP3.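 Further: membrane vesicles with radiolabelled probe substrate and 2 mM glutathione, 4 mM ATP versus AMP background control, vesicle-trapped substrate quantified by liquid scintillation counting after filtration; ATP 4 mM vs AMP background separates transporter uptake from diffusion.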 The settings on record: MRP3; reference inhibitor 150 µM.
MRP3, sequence (O15438 whole entry, the tested form may be a part): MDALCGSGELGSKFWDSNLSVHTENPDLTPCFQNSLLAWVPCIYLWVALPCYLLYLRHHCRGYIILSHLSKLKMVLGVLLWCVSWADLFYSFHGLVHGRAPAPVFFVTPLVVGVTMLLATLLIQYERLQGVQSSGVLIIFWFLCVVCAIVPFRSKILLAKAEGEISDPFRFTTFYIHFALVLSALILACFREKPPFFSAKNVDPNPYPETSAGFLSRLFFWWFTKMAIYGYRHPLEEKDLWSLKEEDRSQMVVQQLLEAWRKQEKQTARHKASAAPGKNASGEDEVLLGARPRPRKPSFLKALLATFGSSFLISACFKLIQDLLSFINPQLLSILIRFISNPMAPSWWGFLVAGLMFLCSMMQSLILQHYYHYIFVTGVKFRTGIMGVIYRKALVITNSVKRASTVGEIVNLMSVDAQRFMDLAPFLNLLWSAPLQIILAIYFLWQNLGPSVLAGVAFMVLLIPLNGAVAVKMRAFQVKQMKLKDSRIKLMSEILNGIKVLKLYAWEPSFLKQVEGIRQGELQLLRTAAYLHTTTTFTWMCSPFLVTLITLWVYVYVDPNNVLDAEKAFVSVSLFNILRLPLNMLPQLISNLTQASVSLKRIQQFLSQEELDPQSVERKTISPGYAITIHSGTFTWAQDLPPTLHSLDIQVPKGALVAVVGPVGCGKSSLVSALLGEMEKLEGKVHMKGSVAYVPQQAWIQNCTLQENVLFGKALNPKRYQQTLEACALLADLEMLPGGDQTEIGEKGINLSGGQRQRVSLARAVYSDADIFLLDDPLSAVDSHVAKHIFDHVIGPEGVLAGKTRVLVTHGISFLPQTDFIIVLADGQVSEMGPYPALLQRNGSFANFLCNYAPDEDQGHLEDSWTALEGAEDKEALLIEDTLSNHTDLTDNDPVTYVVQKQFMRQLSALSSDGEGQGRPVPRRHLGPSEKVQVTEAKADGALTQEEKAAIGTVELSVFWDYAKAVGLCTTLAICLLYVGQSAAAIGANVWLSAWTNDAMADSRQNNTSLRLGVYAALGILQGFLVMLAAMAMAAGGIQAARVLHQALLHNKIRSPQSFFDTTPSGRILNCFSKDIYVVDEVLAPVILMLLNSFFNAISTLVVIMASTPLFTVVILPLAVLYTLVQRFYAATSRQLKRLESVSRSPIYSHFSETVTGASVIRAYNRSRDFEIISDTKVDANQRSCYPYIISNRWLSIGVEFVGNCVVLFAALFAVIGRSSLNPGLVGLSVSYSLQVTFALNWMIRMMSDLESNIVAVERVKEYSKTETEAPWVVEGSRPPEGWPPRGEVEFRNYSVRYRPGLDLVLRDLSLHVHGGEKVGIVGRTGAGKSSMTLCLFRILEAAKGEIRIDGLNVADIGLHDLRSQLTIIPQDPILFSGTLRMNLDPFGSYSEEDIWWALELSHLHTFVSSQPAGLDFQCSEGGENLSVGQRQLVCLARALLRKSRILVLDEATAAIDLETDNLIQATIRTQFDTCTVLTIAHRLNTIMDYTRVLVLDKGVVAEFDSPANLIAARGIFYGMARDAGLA

Procedure for MRP3: (§2) In the vesicular transport inhibition assay (for BSEP, MRP) compounds were incubated with membrane vesicle preparations and the probe substrate. Incubations were carried out in the presence of 4 mM ATP or AMP to distinguish between transporter-mediated uptake and passive diffusion into the vesicles. For MRP2 and MRP3, reactions were carried out in the presence of 2 mM glutathione. Compounds were added to the reaction mixture in 0.75 μL of solvent (1% of the final incubation volume). […] Reactions were initiated by the addition of 25 μL of 12 mM MgATP (or 12 mM AMP in assay buffer as a background control) and preincubated separately. Reactions were quenched by the addition of 200 μL of ice-cold washing buffer and immediate filtration via glass fiber filters mounted on a 96-well plate (filter plate). The filters were washed (5 × 200 μL of ice-cold washing buffer), dried, and the amount of substrate inside the filtered vesicles was determined by liquid scintillation counting.
Procedure for MRP4: as §2

On to `CC#CC(CC(=O)OC1OC(C(=O)O)C(O)C(O)C1O)c1ccc(OCC(C)=C(C)C)cc1` (stereo not drawn) [M15], for which the “rat % of parent at 120 min” value in series [1] was 2.88%. The “human % of parent at 60 min” value in series [2] is recorded as 1.44%.
With `CN(C)C(=O)CCSC(SCCC(=O)O)c1cccc(/C=C/c2ccc3ccc(Cl)cc3n2)c1` (stereo not drawn) [MK571], at MRP4, the “Accumulation (counts per minute; CPM) with AMP” value was 1227 CPM and 1197 CPM; the “Accumulation (counts per minute; CPM) with ATP” value was 1356 CPM and 1304 CPM. Moreover, on MRP3, the “Accumulation (counts per minute; CPM) with AMP” value is 193 CPM and 200 CPM and 153 CPM and 106 CPM; the “Accumulation (counts per minute; CPM) with ATP” value was 299 CPM and 302 CPM and 151 CPM and 183 CPM.
